Laboratory results reported in US12544431B2, “Peptides for the treatment of cancer and/or metastasis” (BCN PEPTIDES, S.A., priority 2019, dated 2026).
“Also recorded” adds a separate entry of the source. Marks after values point to notes of the source that are not given here. Where a SMILES comes first, the peptide text is derived from it. [ ]: non-standard residue; d: D form. Phe(2,4,6-Me3) = Cc1cc(C)c(C[C@H](N)C(=O)O)c(C)c1; pGlu = O=C1CC[C@@H](C(=O)O)N1

Key:
[1] = tested on: BE(2)-C neuroblastoma cells; assay: Transwell invasion assay, BE(2)-C cells; format: cell-based
Procedure: (§1) 10^5 RH30 or RD cells were plated in the upper chamber of a Matrigel-coated transwell (Corning) in 0.1 mL medium without FBS. Cells were previously incubated with different concentrations (0 nM, 100 nM, 200 nM, 500 nM and 1000 nM) of the peptides and peptide dimer for 48 hours, being also present in the medium during the cell invasion assay. In the lower chamber, 0.6 mL of medium with FBS was added. Cells were incubated at 37° ° C. for 24 hours.
(§2) After that, cells were fixed with 4% paraformaldehyde (Sigma) for 10 minutes, followed by washing with PBS. After removal of the Matrigel and remaining cells from the upper face of the membrane with a cotton swab, the cells present on the lower face were stained with a Hoechst dilution (Sigma) and were counted (5 fields for each well) with an inverted fluorescence microscope Nikon with a 10× objective. All experiments were made in triplicate. In Table 6 the % Invasiveness represents the mean percentage of invasive cells with respect to their controls.
(§3) The transwell assay with CHLA-90 and BE(2)-C cell lines was done following the same conditions detailed for determining the % of invasiveness in rhabdomyosarcoma cells.
(§4) The transwell assay with neuroblastoma cell lines (CHLA-90, BE(2)-C and SK—N-BE(2)-C)) and breast cancer cell lines (MDA-MB-231 and MDA-MB-468) was performed at the same conditions detailed for determining the % of invasiveness in rhabdomyosarcoma cells.

[2] = tested on: CHLA-90 neuroblastoma cells; assay: Transwell invasion assay, CHLA-90 cells; format: cell-based
Procedure: as §1, §2, §3, §4

[3] = tested on: RD rhabdomyosarcoma cells; assay: Matrigel-coated transwell invasion assay, RD cells; format: cell-based; conditions: % invasive cells vs non-treated control
Procedure: as §1, §2

[4] = tested on: RH30 rhabdomyosarcoma cells; assay: Matrigel-coated transwell invasion assay, RH30 cells; format: cell-based; conditions: % invasive cells vs non-treated control
Procedure: as §1, §2

[5] = tested on: RD rhabdomyosarcoma cells; assay: Rhabdomyosarcoma metastatic mice model (RD cells i.v. in tail vein); format: in vivo, SCID/Beige mice; conditions: for event-free survival vs vehicle group (in words): 27-week study; for Absence of metastases, number of mice / Absence of metastases, percentage of mice / Presence of metastases (%), percentage of mice / Presence of metastases, number of mice: 27 weeks; for body weight, treated vs vehicle-treated mice (in words): along the 27-week study; for reduction in metastases formation: vs PBS-treated mice
Procedure: SCID/Beige female mice aged of 5 weeks were administered subcutaneously (s.c.) at day −1 with the first dose of treatment i.e. the vehicle (PBS, Phosphate buffered saline) or the peptides. On day 0, mice were injected intravenously (i.v.) in the tail vein with 2×10^6 RD rhabdomyosarcoma cells.
Body weight was evaluated twice per week for 27 weeks. Overall survival and event-free survival were determined. At necropsy, the total number of metastases were quantified and the number of metastases per mice and their localization were also reported.

[6] = In vitro stability, half-life in human plasma; format: in vitro ADME; conditions: 90% human plasma, 37° C., RP-HPLC; read-out: t½ (hours) in human plasma (converted)
Procedure: The peptides and peptide dimer synthesized and prepared in accordance with Example 1 were dissolved in water at a concentration of 6 mg/mL and warmed up to 37° C.
Human plasma was obtained as a lyophilized solid (K3 EDTA Plasma, BBI Solutions, code S112-1), reconstituted with sterile 0.9% sodium chloride solution and stored at −20° C. Human plasma was thawed and incubated at 37° C. before use.
The peptides and peptide dimer were incubated in 90% human plasma at 37° C. for different times and then precipitated with two volume equivalents of methanol. The samples were cooled in an acetone-carbon dioxide bath for a few seconds and centrifuged for 12 minutes at 4° C. at approximately 10,000 rpm. The supernatant was filtered with a 0.45 μm PVDF filter and analyzed in triplicate by RP-HPLC using an isocratic method (Eluent A=0.1% TFA in water; Eluent B=0.07% TFA in ACN, Column=Kromasil C8, 100 Å, 5 μm, 250×4.6 mm, Flow=1 mL/min, Wavelength: 220 nm, Injection volume=20 μL, Temperature=60° C.). The disappearance of the compound was determined in relation to the area of the initial time to calculate its half-life.

[7] = 500 nM peptide, listed as SEQ ID NO: 6—NH2
[8] = 0.5 mg/kg s.c. three times per week
[9] = 2 mg/kg s.c. three times per week

Cc1cc(C)c(C[C@H](NC(=O)[C@H](CCC(=O)O)NC(=O)[C@@H]2CCCN2C(=O)[C@H](CC(C)C)NC(=O)[C@H](CC(=O)O)NC(=O)[C@H](CS)NC(=O)[C@H](CO)NC(=O)[C@H](CC(N)=O)NC(=O)[C@H](CO)NC(=O)[C@H](CO)NC(=O)[C@H](CC(=O)O)NC(=O)[C@H](CCCNC(=N)N)NC(=O)[C@H](CCCCN)NC(=O)[C@@H]2CCC(=O)N2)C(=O)N[C@@H](CCCCN)C(N)=O)c(C)c1 [SEQ ID NO: 6-NH2, Pyr-Lys-Arg-Asp-Ser-Ser-Asn-Ser-Cys-Asp-Leu-Pro-Glu-Msa-Lys-NH2] ([pGlu]KRDSSNSCDLPE[Phe(2,4,6-Me3)]K-NH2)
% Invasiveness BE(2)-C ([1]; 100 nM peptide): 60.08% | % Invasiveness BE(2)-C ([1]; 200 nM peptide): 59.04% | % Invasiveness BE(2)-C ([1]; 500 nM peptide): 31.17* % | % Invasiveness BE(2)-C [1, 7]: significant reductions | % Invasiveness BE(2)-C ([1]; 1000 nM peptide): 23.54* % | % Invasiveness CHLA-90 ([2]; 100 nM peptide): 75.90% | % Invasiveness CHLA-90 ([2]; 200 nM peptide): 55.22* % | % Invasiveness CHLA-90 ([2]; 200 nM peptide, listed as SEQ ID NO: 6—NH2): significant reductions | % Invasiveness CHLA-90 ([2]; 500 nM peptide): 44.58* % | % Invasiveness CHLA-90 ([2]; 1000 nM peptide): 49.00* % | % Invasiveness RD ([3]; 100 nM peptide): 39.45% | % Invasiveness RD ([3]; 500 nM peptide): 39.98% | % Invasiveness RH30 ([4]; 100 nM peptide): 54.67% | % Invasiveness RH30 ([4]; 500 nM peptide): 22.77* % | % Invasiveness RH30 [4, 7]: significant reduction | event-free survival vs vehicle group (in words) ([5]; 0.5 mg/kg (lower dose), listed as SEQ ID NO: 6—NH2): did not show a significant effect | event-free survival vs vehicle group (in words) ([5]; 0.5 mg/kg (lower dose), listed as SEQ ID NO:6—NH2): did not show statistically significant difference | Absence of metastases, number of mice [5, 8]: 1 | Absence of metastases, percentage of mice [5, 8]: 17% | Presence of metastases (%), percentage of mice [5, 8]: 83% | Presence of metastases, number of mice [5, 8]: 5 | body weight, treated vs vehicle-treated mice (in words) ([5]; 0.5 mg/kg): vehicle-treated mice showed a statistically significant lower body weight | reduction in metastases formation ([5]; 0.5 mg/kg): ~15% | number of metastases per mouse vs vehicle (in words) ([5]; 2 mg/kg (higher dose), at necropsy): statistically reduced the formation of metastases per mouse; also recorded: efficacious in the reduction of the number of metastases | Absence of metastases, number of mice [5, 9]: 1 | Absence of metastases, percentage of mice [5, 9]: 14% | Presence of metastases (%), percentage of mice [5, 9]: 86% | Presence of metastases, number of mice [5, 9]: 6 | event-free survival vs vehicle group (in words) ([5]; 2 mg/kg, Log-rank): did not show statistically significant difference | body weight, treated vs vehicle-treated mice (in words) ([5]; 2 mg/kg): vehicle-treated mice showed a statistically significant lower body weight | reduction in metastases formation ([5]; 2 mg/kg): ~15% | half-life at 0.6 mg/mL [6]: 0.17 h
